The record followed here is patent US20190343822A1, “TREATMENT FOR GLAUCOMA” (INDIANA UNIVERSITY RESEARCH AND TECHNOLOGY CORPORATION, priority 2018, published 2019).

Data set [1] deals with mice. Put plainly: Intraocular pressure (IOP) in mice by rebound tonometry (Tonolab). It counts as in vivo. Here is the method:
IOP was measured in mice by rebound tonometry, using a Tonolab (Icare Finland Oy, Helsinki, Finland). This instrument uses a light plastic-tipped probe to briefly make contact with the cornea; after the probe encounters the eye the instrument measures the speed at which the probe rebounds in order to calculate IOP.
(§1) To obtain reproducible IOP measurements, mice were anesthetized with isoflurane (3% induction). The anesthetized mouse was then placed on a platform in a prone position, where anesthesia was maintained with 2% isoflurane. Baseline fop measurements are taken in both eyes. A ‘measurement’ included the average value of six readings. One eye was then treated with drug (dissolved in Tocrisolve (Tocris Biosciences), a soya-based solvent, 5 μL final volume, applied topically) while the other eye was treated with vehicle. The animal was then allowed to recover. After an hour the animal was again anesthetized as above. IOP was then measured in the drug-treated and vehicle-treated contralateral eye.
IOP measurements following drug administration were analyzed by paired t-tests comparing drug-treated eyes to contralateral vehicle-treated eyes. Where animals were injected with drug, ocular pressures of animals were compared with those of vehicle-injected animals and compared using an unpaired t-test.

Data set [2] in a line: Observation of signs of irritation after 7 days of daily topical treatment. Type of data set: in vivo, mice. The conditions noted are these: after the 7 days of daily treatment, SR141716 1 mM topical. Here is the method: as §1
The outcome of repeated daily treatment with SR1 was tested separately. […] The IOP was also lower in the vehicle treated eye but this difference was not statistically significant.

In data set [3] the test system is mice. Put plainly: Intraocular pressure (IOP) in mice by rebound tonometry (Tonolab). It counts as in vivo. The source holds these as a separate data set.

The structures appear in SMILES notation.

For the compound `Cc1c(C(=O)NN2CCCCC2)nn(-c2ccc(Cl)cc2Cl)c1-c1ccc(Cl)cc1` [SR141716, 5-(4-Chlorophenyl)-1-(2,4-dichloro-phenyl)-4-methyl-N-(piperidin-1-yl)-1H-pyrazole-3-carboxamide], in the data set with mice [1] (SR141716 1 mM topical, 7th day of daily treatment, n=8, p<0.005, FIG. 4C), the “Δ IOP±SEM, effect in drug-treated eye after seven days of daily treatment” value is on record as −4.6±0.9 mm Hg. Moreover, the “Δ IOP±SEM, effect at 1 day in drug-treated eye” value in the data set on mice [1] (SR141716 1 mM topical, day 1 of daily treatment, n=8, FIG. 4C) is −2.8±0.6 mm Hg. In addition, the “Effect on intraocular pressure at midday, standard light cycle” value in the data set on mice [1] (SR141716 1 mM, midday, mice in standard light cycle, FIG. 1B) is on record as “raised intraocular pressure”. Further, the “Effect on intraocular pressure at midnight, reverse light cycle” value with mice [1] (SR141716 1 mM, midnight, mice in reverse light cycle) was “reduced intraocular pressure”. Also, the “Effect of daily treatments on ocular pressure” value in the data set with mice [1] (daily treatments over 7 days, FIG. 2C) is on record as “sustained lower ocular pressure”. In addition, the Signs of irritation result in data set [2] is “No signs of irritation were observed”. In addition, the “Δ IOP±SEM, drug-treated eye before 7th treatment (24 hours after 6th daily treatment)” value with mice [3] (SR141716 1 mM topical daily, 7 days, drug-treated eye, n=8, p<0.05, FIG. 4B) is −2.9±1.0 mm Hg. For the same compound, the “Δ IOP±SEM, effect at 24 hrs after a single treatment” value in the data set on mice [3] (SR141716 1 mM topical, single treatment, 24 hrs, n=16, FIG. 4A) is −0.3±0.3 mm Hg. In addition, the “Δ IOP±SEM, effect at 48 hrs after a single treatment” value in the data set with mice [3] (SR141716 1 mM topical, single treatment, 48 hrs, n=16, p<0.005, FIG. 4A) is recorded as “+2.0±0.6 mm Hg”.
As to `O=C(Nc1ccc(Cl)cc1)Nc1cccc(-c2cccc(N3CCCC3)n2)c1` [PSNCBAM1, 1-(4-chlorophenyl)-3-(3-(6-(pyrrolidin-1-yl)pyridin-2-yl)phenyl)urea], the “IOP (mm Hg±SEM) 1 hour after intraperitoneal injection” value with mice [1] (PSNCBAM1 4 mg/kg IP, 1 hour, n=16, baseline IOP 19.6±0.4, p<0.005, FIG. 3B) is listed as 17.3±0.5 mm Hg. For the same compound, the “IOP (mm Hg±SEM) in drug-treated eye after topical treatment” value in the data set with mice [1] (PSNCBAM1 5 mM topical, WT mice, n=8, not significant vs vehicle-treated eye 17.4±0.7, FIG. 3A) is listed as 18.0±0.6 mm Hg. Further, the “Effect of intraperitoneal injection on ocular pressure” value in the data set on mice [1] (intraperitoneal injection, FIG. 3B) is on record as “lowered ocular pressure”. Further, the “Effect of topical treatment on ocular pressure relative to the contralateral eye” value in the data set with mice [1] (topical, WT mice, FIG. 3A) is given as “did not lower ocular pressure”.
